Experimental findings from paper PMC9569680, “Antiviral Compounds Screening Targeting HBx Protein of the Hepatitis B Virus” (International Journal of Molecular Sciences, 2022) are described below.

pKd: −log10 of the molar value. Structures can show the parent of a compound that is named as a salt. Where two headings read alike, the source gives them in different places.

As usually defined, the koff is the rate constant with which the complex falls apart. Lower therefore signals a long-lived complex. One may read the kon as the rate constant with which the complex forms. In general, pKd refers to the Kd on a negative log10 scale, so that one unit is a factor of ten. A low value points to a high Kd.

The target of test [1] is T1, GST-HBx (genotype D); HBx-D (Hepatitis B virus, UniProt Q80IS1).
T1 construct: gene X; N-terminal GST tag kept (GST 26 kDa; GST-HBx 43 kDa), full-length HBx (154 aa), pGEX, E. coli BL21 (DE3), glutathione-Sepharose
In words: biochemical. On the set-up: Surface plasmon resonance imaging; GST-HBx injected over chip of photo-crosslinked FDA-approved drugs (PlexArray HT), Langmuir fit. The method, then:
All the assays and analyses were performed by Plexera LLC. The binding activity was measured by surface plasmon resonance imaging (SPRi) using a PlexArray HT system (Plexera LLC). The FDA1018 drug library chip consists of an array of 1018 U.S. FDA-approved drugs were ultraviolet-linked on the surface of a chip and used for screening of compounds that bind to the HBx protein. Phosphate-buffered saline was used for a running buffer and 10 mM glycine hydrochloride (pH 2.0) for a regeneration buffer. 25, 50, or 100 nM of GST-HBx protein were injected on the chip surface at a flow rate of […] in order, and the SPRi signal was measured at 25 °C. FK506-binding protein 12 (FKBP12) was used for a positive control (Supplementary Figure S1). The data were analyzed by Plexera Data Analysis Software based on Langmuir adsorption isotherm, and determination of the dissociation constant, dissociation rate constant, and association rate constant was carried out. The binding of GST-HBx protein to 1018 FDA-approved compounds was screened on a chip by SPRi assay. […] Because purification of HBx alone was difficult due to insolubility, HBx was expressed as a GST-fused protein.

The target in test [2] is T1, GST-HBx (genotype D); HBx-D. Kind of test: SPR imaging, compound array (PlexArray HT). In kind it is binding. An excerpt: SPR imaging, compound array (PlexArray HT) on GST-HBx (genotype D); HBx-D
For test [3], the target named is T2, GST-HBx (genotype B); HBx-B.
T2 construct: gene X; N-terminal GST tag kept (GST 26 kDa; GST-HBx 43 kDa), full-length HBx (154 aa), pGEX, E. coli BL21 (DE3), glutathione-Sepharose
In words: SPR imaging, compound array (PlexArray HT). On the set-up: species or system Hepatitis B virus. The note with it: PBS, 25 °C; compound UV-linked to chip surface, GST-HBx 25-100 nM as analyte.

Compound `CCCCC(CC)CNC(=N)NC(=N)NCCCCCCNC(=N)NC(=N)NCC(CC)CCCC` (stereo not drawn) [Alexidine hydrochloride] gave a koff in test [1] of 7.83e-06 s⁻¹. Also, the on-rate (kon) in test [1] (read-out: kon) was found to be 158000 M⁻¹ s⁻¹. Besides, the negative-log Kd (pKd) in test [2] is 10.31.

As to `CC1(C)[C@@H](O[C@H]2O[C@H](C(=O)O)[C@@H](O)[C@H](O)[C@H]2O[C@@H]2O[C@H](C(=O)O)[C@@H](O)[C@H](O)[C@H]2O)CC[C@]2(C)[C@H]3C(=O)C=C4[C@@H]5C[C@@](C)(C(=O)O)CC[C@]5(C)CC[C@@]4(C)[C@]3(C)CC[C@@H]12` [Ammonium glycyrrhizinate], the off-rate constant (koff) in test [1] is 0.000108 s⁻¹. Further, the on-rate (kon) in test [1] (read-out: kon) came out at 143000 M⁻¹ s⁻¹. This compound also had a negative logarithm of the Kd (pKd) in test [2] of 9.12.

In test [1], `CCOc1nc2cccc(C(=O)O)c2n1Cc1ccc(-c2ccccc2-c2noc(=O)[nH]2)cc1` [Azilsartan] showed a pKd of 8.62 and a dissociation rate constant (koff) of 0.000348 s⁻¹. Further, in test [1] (read-out: kon), the on-rate constant (kon) came to 146000 M⁻¹ s⁻¹.

As for `CC[C@H]1OC(=O)[C@H](C)[C@@H](O[C@H]2C[C@@](C)(OC)[C@@H](O)[C@H](C)O2)[C@H](C)[C@@H](O[C@@H]2O[C@H](C)C[C@H](N(C)C)[C@H]2O)[C@](C)(O)C[C@@H](C)CN(C)[C@H](C)[C@@H](O)[C@]1(C)O` [Azithromycin], the pKd in test [3] was 8.88; in test [1], 8.94; in test [2], 10.33. For the same compound, the on-rate constant (kon) is 89200 M⁻¹ s⁻¹ in test [1] (binder, kon (M-1 s-1)) and 85100 M⁻¹ s⁻¹ in test [1] (read-out: kon).

In test [1], `CC(C)NCC(O)COc1ccc(CCOCC2CC2)cc1` (stereo not drawn) [Betaxolol] had a pKd of 8.89 and an off-rate constant (koff) of 9.85e-06 s⁻¹. Besides, the kon in test [1] (read-out: kon) amounted to 7710 M⁻¹ s⁻¹.

In test [1], `CCOc1nc2cccc(C(=O)O)c2n1Cc1ccc(-c2ccccc2-c2nnn[nH]2)cc1` [Candesartan] gave a pKd of 8.88 and an off-rate (koff) of 0.00021 s⁻¹. Also, the on-rate constant (kon) in test [1] (read-out: kon) was 158000 M⁻¹ s⁻¹.

In test [1], `O=C(O)c1ccc(-n2nc(-c3ccccc3O)nc2-c2ccccc2O)cc1` [Deferasirox] showed a pKd of 8.85 and a koff of 0.000134 s⁻¹. Besides, in test [1] (read-out: kon), the on-rate constant (kon) was determined as 95800 M⁻¹ s⁻¹.

In test [1], `CCCCCCCCCCCC[N+](C)(C)CCOc1ccccc1` [Domiphen Bromide] came in with a koff of 3.03e-06 s⁻¹. Besides, the kon in test [1] (read-out: kon) amounted to 105000 M⁻¹ s⁻¹. This compound had a negative-log Kd (pKd) in test [2] of 10.54.

In test [1], `CC1=NN(c2ccc(C)c(C)c2)C(=O)/C1=N\Nc1cccc(-c2cccc(C(=O)O)c2)c1O` [Eltrombopag] gave a negative logarithm of the Kd (pKd) of 8.07 and a koff of 0.000385 s⁻¹. Further, the kon in test [1] (read-out: kon) came out at 45500 M⁻¹ s⁻¹.

In test [1], `CCC1=C(C)CN(C(=O)NCCc2ccc(S(=O)(=O)NC(=O)N[C@H]3CC[C@H](C)CC3)cc2)C1=O` [Glimepiride] showed a negative logarithm of the Kd (pKd) of 8.01 and a koff of 0.000366 s⁻¹. Moreover, the kon in test [1] (read-out: kon) was 37300 M⁻¹ s⁻¹.

For the compound `Cc1cnc(C(=O)NCCc2ccc(S(=O)(=O)NC(=O)NC3CCCCC3)cc2)cn1` [Glipizide], in test [1], the negative logarithm of the Kd (pKd) was 8.35 and the koff is 0.000203 s⁻¹. Also, the on-rate (kon) in test [1] (read-out: kon) turned out to be 45100 M⁻¹ s⁻¹.

In test [1], `CC(C)[C@H]1CC[C@H](C(=O)N[C@H](Cc2ccccc2)C(=O)O)CC1` [Nateglinide] showed a pKd of 8.64 and a dissociation rate constant (koff) of 0.00016 s⁻¹. In test [1] (read-out: kon), the association rate constant (kon) worked out at 69100 M⁻¹ s⁻¹.

In test [1], `CCCc1nc(C(C)(C)O)c(C(=O)OCc2oc(=O)oc2C)n1Cc1ccc(-c2ccccc2-c2nnn[nH]2)cc1` [Olmesartan medoxomil] returned an off-rate constant (koff) of 0.000581 s⁻¹. For the same compound, the on-rate (kon) in test [1] (read-out: kon) worked out at 108000 M⁻¹ s⁻¹.

In test [1], `CC(C(=O)O)c1ccc2c(c1)Cc1cccnc1O2` (stereo not drawn) [Pranoprofen] showed a negative-log Kd (pKd) of 8.25 and an off-rate (koff) of 0.000292 s⁻¹. Further, in test [1] (read-out: kon), the on-rate constant (kon) was 52300 M⁻¹ s⁻¹.

In test [1], `Cc1noc(NS(=O)(=O)c2ccc(N)cc2)c1C` [Sulfisoxazole] showed a pKd of 8.01 and a dissociation rate constant (koff) of 0.000509 s⁻¹. The on-rate constant (kon) in test [1] (read-out: kon) was found to be 51500 M⁻¹ s⁻¹.

In test [1], `CC(C(=O)O)c1ccc(C(=O)c2cccs2)cc1` (stereo not drawn) [Suprofen] gave a pKd of 8.56 and a koff of 0.000308 s⁻¹. Moreover, the kon in test [1] (read-out: kon) was determined as 112000 M⁻¹ s⁻¹.

In test [1], `CC[C@H]1OC(=O)C[C@@H](O)[C@H](C)[C@@H](O[C@@H]2O[C@H](C)[C@@H](O)[C@H](N(C)C)[C@H]2O)[C@@H](CCN2C[C@H](C)C[C@H](C)C2)C[C@@H](C)C(=O)/C=C/C(C)=C/[C@@H]1CO[C@@H]1O[C@H](C)[C@@H](O)[C@@H](OC)[C@H]1OC` [Tilmicosin] had a negative logarithm of the Kd (pKd) of 8.89 and a koff of 8.79e-05 s⁻¹. In addition, the on-rate (kon) in test [1] (read-out: kon) was determined as 67700 M⁻¹ s⁻¹.

For the compound `COc1ccc(/C=C/C(=O)Nc2ccccc2C(=O)O)cc1OC` [Tranilast], the negative-log Kd (pKd) was 9.74 in test [3] and 11.87 in test [2]. In test [1], this compound registered a koff of 2.61e-07 s⁻¹. For the same compound, in test [1] (read-out: kon), the kon was 194000 M⁻¹ s⁻¹.

For `CCCCC(=O)N(Cc1ccc(-c2ccccc2-c2nn[nH]n2)cc1)[C@H](C(=O)O)C(C)C` [Valsartan], the pKd was 8.10 in test [3] and 9.04 in test [2]. The same compound yielded a koff in test [1] of 0.00017 s⁻¹. The kon in test [1] (read-out: kon) amounted to 186000 M⁻¹ s⁻¹.
